In patent US5599559A, “Calcium channel blocking polypeptide from agelenopsis aperta and therapeutic methods employing it” (priority 1995, dated 1997):
Like-named read-outs stand apart in the source and are kept apart here.

Tested on: calcium channels
Format: cell-based, rats
Conditions: read-out: IC50 for blocking calcium channels, pH 7.4

| Compound | IC50 [µM] | IC50 (cerebellar granule cells from 8 day old rats, fura2 fluorescence, 37° C.) [µM] |
| --- | --- | --- |
| COc1ccc(CCN(C)CCCC(C#N)(c2ccc(OC)c(OC)c2)C(C)C)cc1OC (centres unmarked) [Verapamil] | 4.8 | – |
| H2 N-Glu-Ala-Cys-Ala-Gly-Ala-Tyr-Lys-Ser-Cys-Asp-Lys-Val-Lys-Cys-Cys-His-Asp- Arg-Arg-Cys-Arg-Cys-Asn-lle-Ala-Met-Asp-Asn-Cys-Val-Cys-Lys-Leu-Phe-Tyr-Cys-Glu-Leu-Phe-Gly-Thr-Cys-Asp-Arg-Leu-Lys-Pro [peptide J2] | – | < 0.2 |
